Among the data in BindingDB's records for patent US9233979 (Merck Sharp & Dohme, 2016) are IC50 values, retold here.

This assay deals with Mitogen-activated protein kinase 1 (Homo sapiens, UniProt P28482). Kind of assay: IMAP-FP Assay. Here is the method:
Activated ERK2 activity was determined in an IMAP-FP assay (Molecular Devices).

Sequence of Mitogen-activated protein kinase 1 (P28482 whole entry): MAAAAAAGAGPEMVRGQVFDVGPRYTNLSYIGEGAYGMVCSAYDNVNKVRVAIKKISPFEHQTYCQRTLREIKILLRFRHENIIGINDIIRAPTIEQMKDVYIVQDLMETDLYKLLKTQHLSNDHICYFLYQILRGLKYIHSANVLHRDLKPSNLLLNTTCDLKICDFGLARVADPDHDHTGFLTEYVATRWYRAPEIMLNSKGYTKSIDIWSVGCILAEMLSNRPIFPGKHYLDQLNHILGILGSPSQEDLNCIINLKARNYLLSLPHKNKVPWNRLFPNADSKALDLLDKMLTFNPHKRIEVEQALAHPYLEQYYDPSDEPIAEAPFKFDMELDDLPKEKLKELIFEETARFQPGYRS

The IC50 is the concentration at which inhibition is half-maximal. `COC1CN(c2n[nH]c3cc(NC(=O)N[C@H](C)c4ccc(F)cc4)ncc23)C1` [US9233979, 23] yielded an IC50 of 8.69 nM.
